Ends that are not written are not given here.
Test system: NGF-differentiated PC-12 cells
Assay: Assessment of nuclear morphology with Hoechst-33258 after Aβ1−42 exposure
Type: cell-based, Rat
Conditions: peptide 100 nM pre-treatment; Aβ1−42 oligomers 5 μM, 24 h; Hoechst staining; 3 separate experiments, ~1,000 cells per group
Protocol: Rat pheochromocytoma cells (PC-12 cells) were grown as previously described (Pannaccione et al., [2005], [2007]). For all the experiments, cells were seeded at low density on glass cover-slips coated with poly-L-lysine (50 μg/ml). Differentiation of PC-12 cells was achieved by treatment with neuronal growth factor (NGF) 2.5 S (50 ng/ml) for 7–9 days (Greene and Tischler, [1976]). For electrophysiological experiments, cells were seeded on glass cover-slips and used after 7–9 days of NGF. […]
Nuclear morphology was evaluated by using the fluorescent DNA-binding dye Hoechst-33258 already described (Pannaccione et al., [2007]).
The peptide used in our study was synthesized by INBIOS (Pozzuoli, Naples, Italy) using the Aβ1−42 sequence of human APP [UniProtKB-P05067 (A4_HUMAN)]. The purity of the peptide was assessed by high-performance liquid chromatography (>95% pure) and the amino acid composition was verified by mass spectrometry. […] The pre-aggregated preparation of Aβ oligomers was analyzed in SDS-PAGE using the rabbit monoclonal anti-Aβ on precast gels 4-20%. […]
Figure 7 Effect of BDS-I[1-8] on Aβ1−42-induced abnormal nuclear morphology and caspase-3 activation in NGF-differentiated PC-12 cells. […] Values are expressed as mean±SEM of 3 independent experimental sessions. […]

With AAPAFASG [BDS-I[1-8]] as the substance, how does the “effect on abnormal nuclear morphology induced by Aβ1−42 exposure” value read?
The value was “able to significantly prevent”.

How did the “effect on abnormal nuclear morphology induced by Aβ1−42 exposure” value turn out when blood depressing substance-I [BDS-I] was run?
Its value is “able to significantly prevent”.

— article PMC6629785, “Synthesis and Pharmacological Evaluation of a Novel Peptide Based on Anemonia sulcata BDS-I Toxin as a New KV3.4 Inhibitor Exerting a Neuroprotective Effect Against Amyloid-β Peptide” (Frontiers in Chemistry, 2019)
